According to DBAASP:
Values after ≈ are worked out from the molar mass of the structure shown.

Assays:
Assay in all cases: ≥ marks a high value that may be exact or a test limit, other limits are often not marked, values filed in µg/mL are converted to µM
[1] = system: Staphylococcus aureus ATCC 25923
[2] = system: Micrococcus luteus
[3] = system: Escherichia coli ATCC 25922
[4] = system: Pseudomonas aeruginosa ATCC 15692
[5] = system: Saccharomyces cerevisiae

CC[C@H](C)[C@H](NC(=O)[C@H](C)NC(=O)[C@H](CC(=O)O)NC(=O)[C@H](CC(C)C)NC(=O)CNC(=O)CNC(=O)[C@H](CCCCN)NC(=O)[C@H](C)NC(=O)[C@H](Cc1ccccc1)NC(=O)[C@H](CCCCN)NC(=O)[C@H](CCCCN)NC(=O)[C@H](CC(C)C)NC(=O)CNC(=O)CNC(=O)[C@H](CC(C)C)NC(=O)[C@@H](NC(=O)[C@@H](NC(=O)[C@H](CO)NC(=O)[C@H](Cc1c[nH]c2ccccc12)NC(=O)[C@@H](NC(=O)CN)C(C)C)[C@@H](C)O)[C@@H](C)CC)C(=O)N[C@H](C(=O)N[C@@H](CC(N)=O)C(=O)N1CCC[C@H]1C(=O)N[C@@H](CCCCN)C(=O)O)C(C)C [GVWSTILGGLKKFAKGGLDAIVNPK]
MIC [1]: 11.3 µM (≈ 29.1 µg/mL) | MIC [2]: 0.5 µM (≈ 1.29 µg/mL) | MIC [3]: 2.83 µM (≈ 7.27 µg/mL) | MIC [4]: 16 µM (≈ 41.1 µg/mL) | MIC [5]: 8 µM (≈ 20.6 µg/mL)
